Test results taken from US11135252B2, “Probiotic therapies for developmental disorders and other neurological disorders” (Baylor College of Medicine, priority 2016, dated 2021).
“Also recorded” adds a separate entry of the source.

Columns and labels:
VTA DA neurons = assay: Social interaction-induced LTP (AMPAR/NMDAR ratio) in VTA DA neurons of MHFD offspring; type: in vivo, mice; details: for stranger interaction-evoked LTP in the VTA (AMPAR/NMDAR ratio): bacteria in drinking water, 24 hours after 10 min reciprocal interaction
From the text: Brain regions responding to naturally rewarding stimuli, including the ventral tegmental area (VTA) and the nucleus accumbens (NAc), are crucially involved in social behaviors (Dolen et al., 2013; Gunaydin et al., 2014; Huang and Hessler, 2008). In addition, oxytocin-expressing neurons in the PVN project to the VTA (Melis et al., 2007). Oxytocin activates VTA neurons in both mice and humans, influencing the processing of socially relevant cues (Gregory et al., 2015; Groppe et al., 2013; Tang et al., 2014) and oxytocin receptor blockade in the VTA prevents social attachment in rodents (Pedersen et al., 1994). Given that social stimulation can be particularly rewarding and triggers synaptic potentiation in VTA DA neurons of birds (Huang and Hessler, 2008), it was considered whether direct social interaction evokes long-term potentiation (LTP) of synaptic inputs to VTA DA neurons (FIGS. 20A-20C). To this end, AMPAR/NMDAR ratios were recorded of glutamatergic excitatory postsynaptic currents (EPSCs) in MRD and MHFD offspring 24 hours following a 10 min reciprocal interaction with either a stranger or a familiar mouse (FIG. 5A). In control MRD mice, social interaction with a stranger, but not a familiar mouse, triggered LTP in VTA DA neurons, as determined by an increase in AMPAR/NMDAR ratios (FIGS. 5B and 5D).
Recordings were performed as previously described (Ungless et al., 2001; Zhu et al., 2011) and the investigators were kept blind to treatment conditions. Briefly, mice were anesthetized with a mixture of ketamine (100 mg/kg), xylazine (10 mg/kg) and acepromazine (3 mg/kg). Horizontal slices (225-300 μm thick) containing the VTA were cut from the brains of C57BL/6J mice. Mice were transcardially perfused with an ice-cold, oxygenated solution containing (in mM) NaCl, 87; NaHCO3, 25; KCl, 2.5; NaH2PO4, 1.25; MgCl2, 7; CaCl2, 0.5; dextrose, 25; sucrose, 75. […] Data were obtained with a MultiClamp 700B amplifier, digitized at 20 kHz with a Digidata 1440A, recorded by Clampex 10 and analyzed with Clampfit 10 software (Molecular Devices). […] After establishing a gigaohm seal (>2 GΩ) and recording stable spontaneous firing in cell-attached, voltage clamp mode (−70 mV holding potential), cell phenotype was determined by measuring the width of the action potential and the presence of an Ih current. AMPAR/NMDAR ratios were calculated as previously described (Ungless et al., 2001). […]

MHFD offspring = assay: Reciprocal social interaction test in MHFD offspring; type: in vivo, mice
From the text: Animal care and experimental procedures were approved by Baylor College of Medicine's Institutional Animal Care and Use Committee in accordance with all guidelines set forth by the U.S. National Institutes of Health. Reciprocal Social Interaction. Mice were placed in a 25×25×25 cm Plexiglass arena, to which they had not been previously habituated, with either a familiar (cage-mate) or stranger age- and sex-matched conspecific. In all experiments, paired mice were matched for maternal diet, colonization source, and/or treatment. We recorded the time a pair of mice engaged in social interaction (close following, touching, nose-to-nose sniffing, nose-to-anus sniffing, and/or crawling over/under each other). The human observer was blind to maternal diet and/or treatment group. Social behavior was analyzed with AnyMaze automated software. Lactobacillus reuteri MM4-1A (ATCC-PTA-6475) and Lactobacillus johnsonii (ATCC 33200) were cultured anaerobically in MRS broth in a 90% N2, 5% CO2, 5% H2 environment. L. reuteri was heat-killed by keeping the bacteria at 80° C. for 20 minutes (Wang et al., 2010). Bacterial viability was assessed by plating and the efficacy of the heat-kill procedure was confirmed by the absence of colony growth following plating. Cultures were centrifuged, washed, and resuspended in anaerobic solution (PBS) and frozen at −80° C. until use. PBS, live or heat-killed L. reuteri were added to the drinking water, which was changed daily to minimize dosage variability. Whereas the experimental group received live bacteria, one control group received identically prepared cultures of heat-killed bacteria. A second group of control mice received water treated with PBS alone. Live and heat-killed L. reuteri were supplied at a dosage of 1×10^8 organisms/mouse/day continuously in drinking water. Mice consumed the treated water ad libitum over the treatment period. The treated drinking water for each group was replaced daily two hours prior to the onset of the dark cycle to minimize variation in microbial exposure. Behavioral assays were initiated after 4-weeks of L. reuteri or control treatment. The protocol of the L. johnsonii preparation and administration matched the L. reuteri protocol. Fecal samples for sequencing and tissue used in the immunofluorescence studies were collected at the end of the treatment. Oxytocin was obtained from Tocris Bioscience (product 1910) and solubilized in 10% dimethyl sulfoxide (DMSO) in PBS. 10% DMSO in PBS was used as the vehicle control. Mice received oxytocin intranasally (at approximately 200 μg/kg) thirty minutes prior to behavior. 1.25 μl of oxytocin or vehicle solution was injected into each nostril from P10 pipette. Oxytocin dose was selected according to dosages reported to rescue social behavior in genetic models phenotypically expressing ASD-like behaviors (Penagarikano et al., 2015).

Compound | social interaction-induced LTP in the VTA (VTA DA neurons; intranasal oxytocin alone, without social interaction) | social interaction-induced LTP in the VTA (VTA DA neurons; intranasal oxytocin approximately 200 μg/kg combined with stranger social interaction) | contact duration in reciprocal social interaction test (MHFD offspring; intranasal oxytocin) | interaction frequency in reciprocal social interaction test (MHFD offspring; intranasal oxytocin) | reciprocal social interaction (MHFD offspring; intranasal oxytocin approximately 200 μg/kg, 30 min prior) | reciprocal social interaction (MHFD offspring; intranasal oxytocin approximately 200 μg/kg, 30 min prior, listed as Oxytocin) | stranger interaction-evoked LTP in the VTA (AMPAR/NMDAR ratio) (VTA DA neurons) | stranger interaction-evoked LTP in the VTA (AMPAR/NMDAR ratio) (VTA DA neurons; listed as live L. reuteri) | reciprocal social interaction (MHFD offspring; bacteria in drinking water) | reciprocal social interaction (MHFD offspring; bacteria in drinking water, listed as live L. reuteri)
CC[C@H](C)[C@@H]1NC(=O)[C@H](Cc2ccc(O)cc2)NC(=O)[C@@H](N)CSSC[C@@H](C(=O)N2CCC[C@H]2C(=O)N[C@@H](CC(C)C)C(=O)NCC(N)=O)NC(=O)[C@H](CC(N)=O)NC(=O)[C@H](CCC(N)=O)NC1=O [oxytocin] | failed to rescue | restored LTP; also recorded: rescued LTP | improved MHFD offspring contact duration | improved | improved reciprocal social interaction | restored reciprocal social interaction |  |  |  | 
Lactobacillus reuteri MM4-1A (ATCC-PTA-6475) [L. reuteri] |  |  |  |  |  |  | rescued stranger interaction-induced LTP | restored stranger interaction-evoked LTP | rescued | restored reciprocal social interaction
